Consider 6 cell lines from the supplement of paper PMC10307832.

Common to all, as to test: relative viability (nuclei count vs DMSO), 5 days (fraction); higher = more cells survive
Compound in experiment [1]: CC[C@H](C)N1C=C(C2=C(C=C(C=C21)C3=CN=C(C=C3)N4CCNCC4)C(=O)NCC5=C(C=C(NC5=O)C)C)C [GSK126] + COc1cccc2cc(-c3nc([C@H]4CC[C@H](C(=O)O)CC4)n4ncnc(N)c34)[nH]c12 [OSI-027] (partner 0.5 µM)
The method in brief: (§1)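 Lung cancer cell lines were pin-tool dosed in 1536-well plates on the day after seeding, with either a lone drug or a fixed anchor-drug dose plus five library-drug doses (not always all listed) in √10 steps. Nuclei were counted on 4× images after 5 days. Relative viability is the ratio of treated-well to vehicle-well nuclei counts, with each value a median of duplicate plates.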

Compound in experiment [2]: NS(=O)(=O)OC[C@@H]1C[C@@H](n2ccc3c(N[C@H]4CCc5ccccc54)ncnc32)C[C@@H]1O [MLN4924] + CC(=O)c1c(C)c2cnc(Nc3ccc(N4CCNCC4)cn3)nc2n(C2CCCC2)c1=O [Palbociclib] (partner 0.5 µM)
The procedure, abridged: as §1

Compound in experiment [3]: NS(=O)(=O)OC[C@@H]1C[C@@H](n2ccc3c(N[C@H]4CCc5ccccc54)ncnc32)C[C@@H]1O [MLN4924] + COc1cc2c(Oc3ccc(NC(=O)C4(C(=O)Nc5ccc(F)cc5)CC4)cc3F)ccnc2cc1OCCCN1CCOCC1 [Foretinib] (partner 0.25 µM)
The procedure, abridged: as §1

Compound in experiment [4]: NS(=O)(=O)OC[C@@H]1C[C@@H](n2ccc3c(N[C@H]4CCc5ccccc54)ncnc32)C[C@@H]1O [MLN4924] + CS(=O)(=O)N1CCN(Cc2cc3nc(-c4cccc5[nH]ncc45)nc(N4CCOCC4)c3s2)CC1 [Pictilisib] (partner 1 µM)
The method in brief: as §1

As for LC-2-ad, the relative viability worked out at 1.02 in experiment [1] (first compound 0.08 µM); 0.868 in experiment [1] (first compound 0.253 µM); 0.902 in experiment [1] (first compound 0.8 µM); 0.862 in experiment [1] (first compound 2.53 µM); 0.985 in experiment [1] (first compound 8 µM); 0.443 in experiment [2] (first compound 0.04 µM). The relative viability in experiment [2] (first compound 0.1265 µM) came out at 0.427; in experiment [2] (first compound 0.4 µM) it was 0.432; in experiment [2] (first compound 1.265 µM), 0.233; in experiment [2] (first compound 4 µM) it was 0.196; in experiment [3] (first compound 0.04 µM) it was 0.845; in experiment [3] (first compound 0.1265 µM), 0.793. The relative viability in experiment [3] (first compound 0.4 µM) amounted to 0.592; in experiment [3] (first compound 1.265 µM) it was 0.212; in experiment [3] (first compound 4 µM), 0.186; in experiment [4] (first compound 0.04 µM), 0.122; in experiment [4] (first compound 0.1265 µM), 0.427; in experiment [4] (first compound 0.4 µM), 0.39. The relative viability in experiment [4] (first compound 1.265 µM) was determined as 0.143; in experiment [4] (first compound 4 µM) it was 0.116.

LCLC-97TM1: the relative viability in experiment [1] (first compound 0.08 µM) was determined as 0.503; in experiment [1] (first compound 0.253 µM), 0.421; in experiment [1] (first compound 0.8 µM) it was 0.546; in experiment [1] (first compound 2.53 µM), 0.606; in experiment [1] (first compound 8 µM), 0.635; in experiment [2] (first compound 0.04 µM), 0.185. The relative viability was 0.114 in experiment [2] (first compound 0.1265 µM); 0.0981 in experiment [2] (first compound 0.4 µM); 0.0625 in experiment [2] (first compound 1.265 µM); 0.0723 in experiment [2] (first compound 4 µM); 0.97 in experiment [3] (first compound 0.04 µM); 0.424 in experiment [3] (first compound 0.1265 µM). Moreover, the relative viability was 0.69 in experiment [3] (first compound 0.4 µM); 0.127 in experiment [3] (first compound 1.265 µM); 0.123 in experiment [3] (first compound 4 µM); 0.159 in experiment [4] (first compound 0.04 µM); 0.224 in experiment [4] (first compound 0.1265 µM); 0.132 in experiment [4] (first compound 0.4 µM). Besides, the relative viability in experiment [4] (first compound 1.265 µM) amounted to 0.129; in experiment [4] (first compound 4 µM), 0.104.

In the case of LCLC-103H, the relative viability in experiment [1] (first compound 0.08 µM) was 0.514; in experiment [1] (first compound 0.253 µM), 0.453; in experiment [1] (first compound 0.8 µM) it was 0.533; in experiment [1] (first compound 2.53 µM), 0.435; in experiment [1] (first compound 8 µM) it was 0.456; in experiment [2] (first compound 0.04 µM), 0.47. Also, the relative viability in experiment [2] (first compound 0.1265 µM) was found to be 0.421; in experiment [2] (first compound 0.4 µM) it was 0.352; in experiment [2] (first compound 1.265 µM), 0.265; in experiment [2] (first compound 4 µM) it was 0.32; in experiment [3] (first compound 0.04 µM), 0.85; in experiment [3] (first compound 0.1265 µM), 0.896. Moreover, the relative viability in experiment [3] (first compound 0.4 µM) came out at 0.861; in experiment [3] (first compound 1.265 µM) it was 0.175; in experiment [3] (first compound 4 µM) it was 0.15; in experiment [4] (first compound 0.04 µM), 0.757; in experiment [4] (first compound 0.1265 µM), 0.697; in experiment [4] (first compound 0.4 µM), 0.788. Moreover, the relative viability in experiment [4] (first compound 1.265 µM) was found to be 0.238; in experiment [4] (first compound 4 µM), 0.233.

With LK-2, the relative viability came to 0.168 in experiment [1] (first compound 0.08 µM); 0.245 in experiment [1] (first compound 0.253 µM); 0.212 in experiment [1] (first compound 0.8 µM); 0.282 in experiment [1] (first compound 2.53 µM); 0.303 in experiment [1] (first compound 8 µM); 0.508 in experiment [2] (first compound 0.04 µM). For the same cell line, the relative viability in experiment [2] (first compound 0.1265 µM) was 0.342; in experiment [2] (first compound 0.4 µM), 0.284; in experiment [2] (first compound 1.265 µM), 0.138; in experiment [2] (first compound 4 µM), 0.161; in experiment [3] (first compound 0.04 µM) it was 1.35; in experiment [3] (first compound 0.1265 µM) it was 0.676. Moreover, the relative viability came out at 0.621 in experiment [3] (first compound 0.4 µM); 0.265 in experiment [3] (first compound 1.265 µM); 0.222 in experiment [3] (first compound 4 µM); 0.511 in experiment [4] (first compound 0.04 µM); 0.503 in experiment [4] (first compound 0.1265 µM); 0.566 in experiment [4] (first compound 0.4 µM). Moreover, the relative viability in experiment [4] (first compound 1.265 µM) was found to be 0.254; in experiment [4] (first compound 4 µM) it was 0.262.

For the cell line LOU-NH91, the relative viability in experiment [1] (first compound 0.08 µM) is 0.728; in experiment [1] (first compound 0.253 µM) it was 0.735; in experiment [1] (first compound 0.8 µM) it was 0.751; in experiment [1] (first compound 2.53 µM), 0.681; in experiment [1] (first compound 8 µM), 0.787; in experiment [2] (first compound 0.04 µM), 0.494. Also, the relative viability was found to be 0.521 in experiment [2] (first compound 0.1265 µM); 0.532 in experiment [2] (first compound 0.4 µM); 0.426 in experiment [2] (first compound 1.265 µM); 0.413 in experiment [2] (first compound 4 µM); 0.945 in experiment [3] (first compound 0.04 µM); 0.952 in experiment [3] (first compound 0.1265 µM). Moreover, the relative viability in experiment [3] (first compound 0.4 µM) was found to be 0.896; in experiment [3] (first compound 1.265 µM), 0.539; in experiment [3] (first compound 4 µM), 0.413; in experiment [4] (first compound 0.04 µM), 0.53; in experiment [4] (first compound 0.1265 µM) it was 0.574; in experiment [4] (first compound 0.4 µM) it was 0.515. Moreover, the relative viability in experiment [4] (first compound 1.265 µM) is 0.393; in experiment [4] (first compound 4 µM) it was 0.434.

Regarding LU99A, the relative viability in experiment [1] (first compound 0.08 µM) was 0.341; in experiment [1] (first compound 0.253 µM) it was 0.324; in experiment [1] (first compound 0.8 µM), 0.275; in experiment [1] (first compound 2.53 µM) it was 0.311; in experiment [1] (first compound 8 µM), 0.296; in experiment [2] (first compound 0.04 µM) it was 0.414. The relative viability in experiment [2] (first compound 0.1265 µM) was 0.333; in experiment [2] (first compound 0.4 µM), 0.318; in experiment [2] (first compound 1.265 µM) it was 0.163; in experiment [2] (first compound 4 µM), 0.125; in experiment [3] (first compound 0.04 µM) it was 0.531; in experiment [3] (first compound 0.1265 µM), 0.365. Besides, the relative viability was 0.314 in experiment [3] (first compound 0.4 µM); 0.188 in experiment [3] (first compound 1.265 µM); 0.236 in experiment [3] (first compound 4 µM); 0.334 in experiment [4] (first compound 0.04 µM); 0.299 in experiment [4] (first compound 0.1265 µM); 0.226 in experiment [4] (first compound 0.4 µM). Besides, the relative viability in experiment [4] (first compound 1.265 µM) is 0.153; in experiment [4] (first compound 4 µM) it was 0.137.
